Laboratory results taken from patent US20080146555A1, “Uses of Kinase Inhibitors and Compositions Thereof” (GPC Biotech, Inc, priority 2004, published 2008).

Each compound was assayed on HCT-116 cells (assay: Calcein AM viability assay, HCT-116). Details: Homo sapiens, HCT-116, non-protein adjusted, Table 4; read-out: HCT-116 viability IC50.
Format: cell-based
Protocol: The potency of the subject kinase inhibitors, as measured by loss of cellular viability, was determined with the Calcein AM assay (Molecular Probes). Calcein AM is a substrate of intracellular esterases, which is cleaved only in viable cells to generate a fluorescent product that can be quantified with a fluorescent plate reader. The fluorescent signal is proportional to the number of viable cells, and thus loss of signal in response to the exposure of cells to the subject kinase inhibitors correlates with a loss of viability. This assay not only distinguishes cell cycle arrest, in which cells may still by viable, from loss of viability, and is thus well suited for the evaluation of the subject kinase inhibitors. A compound that is a potent cytotoxic agent may cause significant loss of cell viability in such an assay.
Cellular IC50's were determined in the human colorectal carcinoma cell line, HCT-116, and the normal human fibroblast, IMR90. Protein adjusted IC50's were also determined in HCT-116. Results of such viability assays are presented in Table 2 (HCT-116 (viability/protein adjusted) and IMR-90). IC50's (μM, non-protein adjusted) for the viability assay against HCT-116 cells are shown for further compounds of the invention in Table 4.
HCT-116 or IMR90 cells were recovered from sub-confluent plates by trypsinization and 1,000 or 4,000 cells, respectively, were plated in 24-well dishes and incubated overnight at 37° C., 5% CO2. HCT-116 cells were cultured in RPMI-1640, 10% FCS, and IMR90 cells were cultured in Minimum Essential Medium-alpha, 10% FCS. After overnight incubation to allow adherence, the media was aspirated from each well and replaced with media containing a test compound at a concentration from 0 to 250 nM, spanning a total of 7 doses. The plates were returned to the incubator and cultured for an additional 72 hours (3 days). […] After 72-hours incubation with the test compound, the cells were washed twice with 1×PBS, taking special care to remove all residual buffer.
A 5 μM Calcein AM solution was prepared by dissolving a 50 μg aliquot of Calcein (Molecular Probes catalog #C3100) in 50 μl DMSO. After the Calcein had completely dissolved (10 minutes at room temperature), it was diluted into 10 ml PBS. Calcein/PBS (0.5 ml) was added to each well. The plates were incubated for 75 minutes at 37° C. (protected from light) and the fluorescent signal was read on a fluorescent plate reader (excitation 485/20 and emission 530/25).
With `O=C(Nc1cccc2c1C(=O)c1c-2n[nH]c1-c1ccc(OCCN2CCOCC2)cc1)NN1CCOCC1` [Compound A3] the IC50 was < 100 nM. `Cc1cc(OCCN2CCOCC2)ccc1-c1[nH]nc2c1C(=O)c1c(NC(=O)NN3CCN(C)CC3)cccc1-2` [Compound A7] was tested, and the IC50 was < 100 nM. `Cc1cc(OCCN2CCCCC2)ccc1-c1[nH]nc2c1C(=O)c1c(NC(=O)NN3CCN(C)CC3)cccc1-2` [Compound A8] was tested, and the IC50 was < 100 nM. In the case of `Cc1cc(OCCN2CCCN(C)CC2)ccc1-c1[nH]nc2c1C(=O)c1c(NC(=O)NN3CCN(C)CC3)cccc1-2` [Compound A9], the IC50 is reported as < 100 nM. `O=C(Nc1cccc2c1C(=O)c1c-2n[nH]c1-c1ccc(O)c(CN2CCOCC2)c1)NN1CCOCC1` [Compound A10] was tested, and the IC50 was < 100 nM. `Cc1cc(OCCn2cccn2)ccc1-c1[nH]nc2c1C(=O)c1c(NC(=O)NN3CCN(C)CC3)cccc1-2` [Compound A11] was tested, and the IC50 was < 100 nM. In the case of `CN1CCN(NC(=O)Nc2cccc3c2C(=O)c2c(-c4ccc(OCCN5CCCC5)cc4F)n[nH]c2-3)CC1` [Compound A12], the IC50 is reported as < 100 nM. In the case of `CN1CCN(CCOc2ccc(-c3n[nH]c4c3C(=O)c3c(NC(=O)NN5CCN(C)CC5)cccc3-4)c(F)c2)CC1` [Compound A13], the IC50 is reported as < 10 nM. With `CN1CCN(NC(=O)Nc2cccc3c2C(=O)c2c(-c4ccc(OCCN5CCCC5)c(F)c4)n[nH]c2-3)CC1` [Compound A14] the IC50 was < 100 nM. `CN1CCN(NC(=O)Nc2cccc3c2C(=O)c2c-3n[nH]c2-c2ccc(O)cc2)CC1` [Compound A15] was tested, and the IC50 was < 100 nM. For `CC(C)N1CCN(CCOc2ccc(-c3n[nH]c4c3C(=O)c3c(NC(=O)NN5CCOCC5)cccc3-4)c(F)c2)CC1` [Compound A16], the IC50 was < 100 nM. In the case of `CN1CCN(NC(=O)Nc2cccc3c2C(=O)c2c-3n[nH]c2-c2ccc(OCCn3cccn3)cc2)CC1` [Compound A17], the IC50 is reported as < 100 nM. In the case of `Cc1cc(-c2[nH]nc3c2C(=O)c2c(NC(=O)NN4CCN(C)CC4)cccc2-3)ccc1OCCN1CCN(C(C)C)CC1` [Compound A18], the IC50 is reported as < 100 nM. For `Cc1cc(OCCN2CCN(C(C)C)CC2)ccc1-c1[nH]nc2c1C(=O)c1c(NC(=O)NN3CCN(C)CC3)cccc1-2` [Compound A19], the IC50 was < 100 nM. For `CC(C)N1CCN(CCCOc2ccc(-c3[nH]nc4c3C(=O)c3c(NC(=O)NN5CCOCC5)cccc3-4)cc2)CC1` [Compound A20], the IC50 was < 100 nM. For `Cc1cc(OCCCN2CCN(C(C)C)CC2)ccc1-c1[nH]nc2c1C(=O)c1c(NC(=O)NN3CCOCC3)cccc1-2` [Compound A21], the IC50 was < 100 nM. For `CC(C)N1CCN(CCOc2ccc(-c3n[nH]c4c3C(=O)c3c(NC(=O)NN5CCOCC5)cccc3-4)cc2F)CC1` [Compound A22], the IC50 was < 100 nM. In the case of `CC(C)N1CCN(NC(=O)Nc2cccc3c2C(=O)c2c-3n[nH]c2-c2ccc(OCCN3CCCC3)cc2)CC1` [Compound A23], the IC50 is reported as < 100 nM. With `Cc1cc(-c2[nH]nc3c2C(=O)c2c(NC(=O)NN4CCOCC4)cccc2-3)ccc1OCCN1CCN(C(C)C)CC1` [Compound A24] the IC50 was < 10 nM. With `Cc1cc(-c2[nH]nc3c2C(=O)c2c(NC(=O)NN4CCOCC4)cccc2-3)ccc1OCCN1CCCC1` [Compound A25] the IC50 was < 10 nM. In the case of `CCOC(=O)CN1CCN(NC(=O)Nc2cccc3c2C(=O)c2c-3n[nH]c2-c2ccc(OCCN3CCCC3)cc2)CC1` [Compound A26], the IC50 is reported as < 10 nM. `O=C(Nc1cccc2c1C(=O)c1c(-c3ccc(OCCN4CCOCC4)c(F)c3)n[nH]c1-2)NN1CCOCC1` [Compound A27] was tested, and the IC50 was < 100 nM. `O=C(Nc1cccc2c1C(=O)c1c(-c3ccc(OCCN4CCOCC4)cc3Cl)n[nH]c1-2)NN1CCOCC1` [Compound A28] was tested, and the IC50 was < 100 nM. For `Cc1cc(OCCN2CCCC2)ccc1-c1[nH]nc2c1C(=O)c1c(NC(=O)NN3CCOCC3)cccc1-2` [Compound A29], the IC50 was < 100 nM. `COc1cc(-c2[nH]nc3c2C(=O)c2c(NC(=O)NN4CCOCC4)cccc2-3)ccc1OCCN1CCCC1` [Compound A31] was tested, and the IC50 was < 100 nM. With `CC(C)C(N)C(=O)OCCN1CCN(NC(=O)Nc2cccc3c2C(=O)c2c-3n[nH]c2-c2ccc(OCCN3CCCC3)cc2)CC1` (stereo not drawn) [Compound A33] the IC50 was < 100 nM. For `CN(C)C(=O)COc1ccc(-c2[nH]nc3c2C(=O)c2c(NC(=O)NN4CCOCC4)cccc2-3)cc1` [Compound A34], the IC50 was < 100 nM. For `Cc1noc(COc2ccc(-c3[nH]nc4c3C(=O)c3c(NC(=O)NN5CCOCC5)cccc3-4)cc2)n1` [Compound A35], the IC50 was < 100 nM. `O=C(Nc1cccc2c1C(=O)c1c-2n[nH]c1-c1ccc(OCC(=O)N2CCOCC2)cc1)NN1CCOCC1` [Compound A36] was tested, and the IC50 was < 10 nM. `CC(C)OC(=O)CN1CCN(NC(=O)Nc2cccc3c2C(=O)c2c-3n[nH]c2-c2ccc(OCCN3CCCC3)cc2)CC1` [Compound A40] was tested, and the IC50 was < 100 nM. In the case of `CN(C)C(=O)CN1CCN(NC(=O)Nc2cccc3c2C(=O)c2c-3n[nH]c2-c2ccc(OCCN3CCCC3)cc2)CC1` [Compound A41], the IC50 is reported as < 100 nM. `CN1CCN(NC(=O)Nc2cccc3c2C(=O)c2c-3n[nH]c2-c2ccc(OCC(=O)N3CCCC3)cc2)CC1` [Compound A44] was tested, and the IC50 was < 100 nM. In the case of `Cc1noc(COc2ccc(-c3[nH]nc4c3C(=O)c3c(NC(=O)NN5CCN(C)CC5)cccc3-4)cc2)n1` [Compound A45], the IC50 is reported as < 10 nM. In the case of `O=C(Nc1cccc2c1C(=O)c1c-2n[nH]c1-c1ccc(OCC(=O)N2CCCC2)cc1)NN1CCOCC1` [Compound A46], the IC50 is reported as < 100 nM. For `O=C(Nc1cccc2c1C(=O)c1c(-c3ccc(CN4CCOCC4)cc3)n[nH]c1-2)NN1CCOCC1` [Compound A47], the IC50 was < 10 nM. `CN1CCN(Cc2ccc(-c3n[nH]c4c3C(=O)c3c(NC(=O)NN5CCOCC5)cccc3-4)cc2)CC1` [Compound A49] was tested, and the IC50 was < 100 nM. `O=C(Nc1cccc2c1C(=O)c1c(-c3ccc(CN4CCCC4)cc3)n[nH]c1-2)NN1CCOCC1` [Compound A51] was tested, and the IC50 was < 100 nM. For `O=C(Nc1cccc2c1C(=O)c1c-2n[nH]c1-c1ccc(S(=O)(=O)N2CCNCC2)cc1)NN1CCOCC1` [Compound A56], the IC50 was < 100 nM. In the case of `CC(C)N1CCN(S(=O)(=O)c2ccc(-c3[nH]nc4c3C(=O)c3c(NC(=O)NN5CCOCC5)cccc3-4)cc2)CC1` [Compound A57], the IC50 is reported as < 100 nM. `CCOC(=O)COc1ccc(-c2[nH]nc3c2C(=O)c2c(NC(=O)NN4CCOCC4)cccc2-3)cc1` [Compound A65] was tested, and the IC50 was < 100 nM. For `O=C(O)COc1ccc(-c2n[nH]c3c2C(=O)c2c(NC(=O)NN4CCOCC4)cccc2-3)cc1` [Compound A68], the IC50 was < 1000 nM. In the case of `O=C(Nc1cccc2c1C(=O)c1c(-c3ccc(OCc4nnn[nH]4)cc3)n[nH]c1-2)NN1CCOCC1` [Compound A74], the IC50 is reported as > 250 nM. `CN1CCN(C(=O)COc2ccc(-c3n[nH]c4c3C(=O)c3c(NC(=O)NN5CCOCC5)cccc3-4)cc2)CC1` [Compound A77] was tested, and the IC50 was < 100 nM. `CCN1CCN(C(=O)COc2ccc(-c3n[nH]c4c3C(=O)c3c(NC(=O)NN5CCOCC5)cccc3-4)cc2)CC1` [Compound A78] was tested, and the IC50 was < 10 nM. With `O=C(Nc1cccc2c1C(=O)c1c(-c3ccc(OCC(=O)N4CCN(Cc5ccccc5)CC4)cc3)n[nH]c1-2)NN1CCOCC1` [Compound A79] the IC50 was < 100 nM. `O=C(Nc1cccc2c1C(=O)c1c(-c3ccc(OCC(=O)N4CCN(c5ccccc5)CC4)cc3)n[nH]c1-2)NN1CCOCC1` [Compound A80] was tested, and the IC50 was < 100 nM. `O=C(Nc1cccc2c1C(=O)c1c(-c3ccc(OCC(=O)N4CCN(c5ccccn5)CC4)cc3)n[nH]c1-2)NN1CCOCC1` [Compound A81] was tested, and the IC50 was < 100 nM. `O=C(Nc1cccc2c1C(=O)c1c(-c3ccc(CN4CCN(c5ccccn5)CC4)cc3)n[nH]c1-2)NN1CCOCC1` [Compound A82] was tested, and the IC50 was < 100 nM. `O=C(Nc1cccc2c1C(=O)c1c(-c3ccc(CNC(CO)CO)cc3)n[nH]c1-2)NN1CCOCC1` [Compound B1] was tested, and the IC50 was < 1000 nM. `O=C(Nc1cccc2c1C(=O)c1c(-c3ccc(CN(CCO)CCO)cc3)n[nH]c1-2)NN1CCOCC1` [Compound B2] was tested, and the IC50 was < 100 nM. For `O=C(Nc1cccc2c1C(=O)c1c(-c3ccc(CN4CCN(CCO)CC4)cc3)n[nH]c1-2)NN1CCOCC1` [Compound B3], the IC50 was < 100 nM. With `O=C(Nc1cccc2c1C(=O)c1c(-c3ccc(CNCCOCCO)cc3)n[nH]c1-2)NN1CCOCC1` [Compound B4] the IC50 was < 100 nM. For `O=C(Nc1cccc2c1C(=O)c1c(-c3ccc(CN4CCC(O)CC4)cc3)n[nH]c1-2)NN1CCOCC1` [Compound B5], the IC50 was < 100 nM. With `O=C(Nc1cccc2c1C(=O)c1c(-c3ccc(CN4CCC[C@H]4CO)cc3)n[nH]c1-2)NN1CCOCC1` [Compound B6] the IC50 was < 100 nM. With `O=C(Nc1cccc2c1C(=O)c1c(-c3ccc(CN4CCN(c5cccc(C(F)(F)F)c5)CC4)cc3)n[nH]c1-2)NN1CCOCC1` [Compound B7] the IC50 was < 1000 nM. `O=C(Nc1cccc2c1C(=O)c1c(-c3ccc(CN4CC[C@@H](O)C4)cc3)n[nH]c1-2)NN1CCOCC1` [Compound B8] was tested, and the IC50 was < 100 nM. `CCOC(=O)C1CCN(Cc2ccc(-c3n[nH]c4c3C(=O)c3c(NC(=O)NN5CCOCC5)cccc3-4)cc2)CC1` [Compound B9] was tested, and the IC50 was < 100 nM.
